Source: the NIST ThermoML archive (doi:10.1016/j.jct.2016.03.029)

Experiments:
[1] = xn = mol fraction of the nth substance listed; conditions: 100 kPa, Liquid; for mass density: Vibrating tube method; for speed of sound: Frequency=3 MHz, Sing-around technique in a fixed-path interferometer
[2] = refractive index (Na D-line) (dimensionless); xn = mol fraction of the nth substance listed; conditions: 100 kPa, Liquid, Standard Abbe refractometry

CCCC[n+]1ccn(C)c1.O=S(=O)([N-]S(=O)(=O)C(F)(F)F)C(F)(F)F + CN1CCCC1=O
Conditions | mass density, 318.15 K [kg/m3] | mass density, 323.15 K [kg/m3] | refractive index, 298.15 K | refractive index, 303.15 K | refractive index, 308.15 K | refractive index, 313.15 K | refractive index, 318.15 K | refractive index, 323.15 K | speed of sound, 323.15 K [m/s]
[1], x1 = 0.1051 | 1116.95 | 1112.42 | – | – | – | – | – | – | 1361.8
[1], x1 = 0.2088 | 1191.41 | 1186.82 | – | – | – | – | – | – | 1306.6
[1], x1 = 0.2926 | 1236.95 | 1232.32 | – | – | – | – | – | – | 1274.3
[1], x1 = 0.3807 | 1275.22 | 1270.56 | – | – | – | – | – | – | 1248.4
[1], x1 = 0.5019 | 1316.7 | 1312.04 | – | – | – | – | – | – | 1222.5
[1], x1 = 0.5925 | 1341.57 | 1336.92 | – | – | – | – | – | – | 1207.8
[1], x1 = 0.6982 | 1365.75 | 1361.1 | – | – | – | – | – | – | 1194.4
[1], x1 = 0.7862 | 1382.75 | 1378.1 | – | – | – | – | – | – | 1185.6
[1], x1 = 0.8895 | 1399.75 | 1395.1 | – | – | – | – | – | – | 1177.9
[1], x1 = 1 | 1414.61 | 1409.88 | – | – | – | – | – | – | 1173.6
[2], x1 = 0.1051 | – | – | 1.45767 | 1.45571 | 1.45375 | 1.45177 | 1.44978 | 1.44778 | –
[2], x1 = 0.2088 | – | – | 1.45014 | 1.4483 | 1.44645 | 1.44455 | 1.44265 | 1.4407 | –
[2], x1 = 0.2926 | – | – | 1.44539 | 1.44359 | 1.44178 | 1.43994 | 1.43809 | 1.43621 | –
[2], x1 = 0.3807 | – | – | 1.44129 | 1.43954 | 1.43777 | 1.43596 | 1.43414 | 1.43228 | –
[2], x1 = 0.5019 | – | – | 1.4368 | 1.4351 | 1.43337 | 1.43161 | 1.42983 | 1.42802 | –
[2], x1 = 0.5925 | – | – | 1.43414 | 1.43244 | 1.43074 | 1.42904 | 1.42733 | 1.42562 | –
[2], x1 = 0.6982 | – | – | 1.43169 | 1.43006 | 1.42842 | 1.42676 | 1.42509 | 1.42341 | –
[2], x1 = 0.7862 | – | – | 1.42999 | 1.42842 | 1.42683 | 1.42522 | 1.42359 | 1.42193 | –
[2], x1 = 0.8895 | – | – | 1.4283 | 1.42678 | 1.42524 | 1.42368 | 1.4221 | 1.42051 | –
[2], x1 = 1 | – | – | 1.42671 | 1.42522 | 1.42373 | 1.42225 | 1.42076 | 1.41923 | –
